One test deals with off-targets (ChEMBL). The note with it: cited from earlier work.
The subject of a further test is parental MCF7 cells. In words: Cell proliferation assay (cell counting), parental cells. Type of test: cell-based, human. The note with it: 1 μM of inhibitor. The protocol: (§1) Parental MCF7, G1:3 and K1:3 cell-lines were seeded in 12-well plates at a density of approximately 80,000 cells·well^−1, in biological triplicate. After the indicated time period, cells were washed with PBS, trypsinized and counted using a Beckman Coulter Vi-CELL XR cell counter. Second-order polynomials where fitted to the data using the ggplot2 package (v0.9.3.1) within R (v3.0.0).

Test [1] has as its system MCF7-G and MCF7-K resistant cells. Put plainly: Cell proliferation assay (cell counting), resistant cells. Type of test: cell-based, human. The note with it: resistant cell-lines (MCF7-G for GDC-0941, MCF7-K for KU-0063794), 1 μM of inhibitor. Here is the method:
MCF7 cells (identity confirmed by genotyping analysis) were routinely maintained in DMEM (supplemented with 10% fetal-bovine serum and 100 U·mL^−1 penicillin/streptomycin) at 37° C. in a humidified atmosphere at 5% CO2. Resistant MCF7 cell-lines, derived from the original parental cells, were obtained by gradually increasing the concentrations of GDC-0941 or KU-0063794 concentrations (starting at 100 nM up to a maximum of 1 μM) over a period of approximately six months. The resultant clones (MCF7-G1:G3 and MCF7-K1:K3) were then routinely maintained as above in the presence of either 1 μM GDC-0941 or KU-0063794 (in DMSO) for MCF7-G and MCF7-K cells, respectively.
as §1

For test [2], the system named is off-target kinases (MRC database). The note with it: cited from earlier work.
The next test has as its system MCF7 cells. In words: Growth factor stimulation phosphoproteomics (CTAM group dynamics, KSEA). Type of test: cell-based, human. The note with it: stimulation for 5 min, relative to 0 minute control. The protocol:
Cells were split and seeded at 4×10^5 cells·plate^−1, 72 hours prior to the experiment. The medium in each plate was replaced 24 hours prior to the experiment. Each experiment was performed in biological duplicate. For the network definition experiments, cells were treated with each of the inhibitors or vehicle (DMSO) for 1 hour (Table 1). For the growth factor stimulation experiments, cells were starved for 24h and were subsequently treated with either 50 ng·mL^−1 EGF or IGF for 0, 5, 10, 30, or 60 minutes. For the resistant cell-line experiments, no additional treatments were performed. […]
The abundance of each of the identified markers was monitored systematically using KSEA (kinase-substrate enrichment analysis), as described previously (1). […] The mean of the log2 fold-ratios (versus control) of the phosphorylation sites representing each CTAM group were then calculated alongside the standard deviation (δ) for each mean. The significance of enrichment was then determined using a Z-score based approach and expressed as P-values, using the following formula: Z=(Sm−μt)·m^1/2/δt; where Sm=mean of the CTAM group log2 fold-ratios; μt=mean of the total dataset log2 ratios; m=number of individual phosphopeptides within the CTAM group; and δt=standard deviation of the total dataset log2 ratios (vs control) (19). […]

Like-named read-outs stand apart in the source and are kept apart here.

In the case of `Nc1[nH]nc2nnc(-c3c(-c4ccccc4)nn4ccccc34)cc12` [ERK inhibitor II], in the test on off-targets (ChEMBL), the “Off-targets from ChEMBL” value is on record as “MAPK14”.
`COc1ccc(-c2ccc3c(N4CCOCC4)nc(N4C[C@@H](C)O[C@@H](C)C4)nc3n2)cc1CO` [KU-0063794]: the “proliferation in the presence of inhibitor” value with parental MCF7 cells is listed as “unable to do so”; in test [1] it was “able to proliferate”.
Regarding `Oc1cccc(-c2nc(N3CCOCC3)c3oc4ncccc4c3n2)c1` [PI-103], the “Off-targets from ChEMBL” value with off-targets (ChEMBL) is “mTOR, and DNA-PK, and Akt1”.
Turning to `CN([C@@H](Cc1ccc(OS(=O)(=O)c2cccc3cnccc23)cc1)C(=O)N1CCN(c2ccccc2)CC1)S(=O)(=O)c1cccc2cnccc12` [KN-62, 1-N,O-bis(5-isoquinolinesulfonyl)-N-methyl-L-tyrosyl-4-phenylpiperazin E], the “Off-targets from MRC database (>50% inhibition at given concentration)” value in test [2] (10 μM) was “PRAK and CAMK1 and DYRK1A and Lck”. Moreover, the “Off-targets from ChEMBL” value in the test on off-targets (ChEMBL) is listed as “P2RX7”.
As to `CCc1cncnc1N1CCN(Cc2nc3ccc(C(F)(F)F)cc3[nH]2)CC1` [PF-4708671], the “Off-targets from MRC database (>50% inhibition at given concentration)” value in test [2] (1 μM) was “MSK1 and RSK1”.
Regarding `Cc1cncc2cccc(S(=O)(=O)N3CCCNC[C@@H]3C)c12` [H-1152], the “Off-targets from ChEMBL” value with off-targets (ChEMBL) was “PKA”.
Regarding `C=CC(=O)Nc1ccc2ncnc(Nc3cccc(Br)c3)c2c1` [PD-168393], the “Off-targets from ChEMBL” value in the test on off-targets (ChEMBL) is “ERBB2/4, and BMX and BTK and BLK and JAK3”.
On to `COc1ccc(S(=O)(=O)N(CCO)c2ccccc2CN(C)C/C=C/c2ccc(Cl)cc2)cc1` [KN-93], for which, in test [2] (10 μM), the “Off-targets from MRC database (>50% inhibition at given concentration)” value was “TrkA and smMLCK”.
Take “IGF-1: Human recombinant IGF-1 (100-11) purchased from Peprotech”: the “EGFR-MEK CTAM group phosphorylation” value with MCF7 cells is recorded as “significant, acute up-regulation”.
For the molecule `CN(C)CCCn1cc(C2=C(c3c[nH]c4ccccc34)C(=O)NC2=O)c2ccccc21` [Bisindolylmaleimide-I], the “Off-targets from ChEMBL” value in the test on off-targets (ChEMBL) is “CDK4/CCND1, and GSK3β, and PIM1”.
Regarding `O=c1[nH]c2ccccc2n1C1CCN(Cc2ccc(-c3nc4cc5[nH]cnc5cc4nc3-c3ccccc3)cc2)CC1` [Akt inhibitor VIII], in test [2] (1 μM), the “Off-targets from MRC database (>50% inhibition at given concentration)” value is given as “CAMK1 (1 μM)”.
For the molecule `N#CC(=C(/N)Sc1ccccc1N)/C(C#N)=C(\N)Sc1ccccc1N` [U0126], the “Off-targets from MRC database (>50% inhibition at given concentration)” value in test [2] (10 μM) was “MKK1 (10 μM)”.
As to `CS(=O)(=O)N1CCN(Cc2cc3nc(-c4cccc5[nH]ncc45)nc(N4CCOCC4)c3s2)CC1` [GDC-0941], the “proliferation in the presence of inhibitor” value with parental MCF7 cells was “unable to do so”; in test [1] it was “able to proliferate”. Also, the “Off-targets from MRC database (>50% inhibition at given concentration)” value in test [2] (1 μM) is “CLK2 (1 μM)”.
As to `Cn1c2ccccc2c2c3c(c4c5ccccc5n(CCC#N)c4c21)CNC3=O` [Go-6976], in the test on off-targets (ChEMBL), the “Off-targets from ChEMBL” value is recorded as “PKD1”.
For the molecule `C[C@@H](N)[C@H]1CC[C@H](C(=O)Nc2ccncc2)CC1` [Y-27632], in test [2] (1 μM), the “Off-targets from MRC database (>50% inhibition at given concentration)” value is “PHK and MST2 and RSK2 and MSK1 and MNK1 and RSK1 and AMPK and PRK2”. In the test with off-targets (ChEMBL), the “Off-targets from ChEMBL” value is on record as “PKCε”.
